Assay results as given in US5087631A, “Oxathi(SIV)azol-5-one compounds” (Glaxo Inc., priority 1990, dated 1992).

Test system: thoracic aortas
Assay: Aorta Vasodilation Assay (relaxation of phenylephrine-contracted, endothelium-removed rat thoracic aorta rings)
Set-up: species or system male Sprague-Dawley rats
Details: 20% O2, without methylene blue, endothelium-removed rings contracted with phenylephrine (1×10^-7 M), SOD 100 U/mL, cumulative addition, read-out: IC50 (relaxation induced by test compound, vasodilation assay)
Protocol: The thoracic aortas removed from euthanized male Sprague-Dawley rats (200-300 g) are cleaned of adherent connective tissue and cut into rings 3 to 5 mm in length. Endothelium is removed by rolling the rings on moist filter paper. […] Tissues are mounted to isometric force displacement transducers and responses are recorded on a polygraph.
All rings are gradually stretched (over a 120 min. period) to a basal resting tension of 2 g, which is maintained throughout the assay. During the basal tension adjustment period, the rings are exposed to KCl (40 mM) two to three times to verify tissue contractility. During this period, the effectiveness of endothelium removal is confirmed by the absence of the characteristic relaxation seen with acetylcholine (1×10^-6 M) in endothelium-intact (but not endothelium-removed) rings contracted with phenylephrine (1×10^-7 M).
Phenylephrine (1×10^-7 M) is then added and the rings are allowed to obtain a stable contractile response after which time, SOD (100 U/mL) is added to the tissues. The test compound is then added in a cumulative fashion. After the stabilization of the response to the last concentration of the test compound, sodium nitroprusside (1×10^-4 M) is added to induce complete relaxation.

Row | SMILES | IC50 [µM]
1 | O=[N+]([O-])c1ccc(-c2[s+]noc2[O-])cc1 [4-nitrophenyl, 4-(4-nitrophenyl)-5H-1,3,2-oxathi(SIV)azol-5-one] | 16
2 | Cc1[s+]noc1[O-] [methyl, 4-Methyl-5H-1,3,2-oxathi(SIV)azol-5-one] | 20
3 | COc1ccc(-c2[s+]noc2[O-])cc1 [4-methoxyphenyl, 4-(4-methoxyphenyl)-5H-1,3,2-oxathi(SIV)azol-5-one] | 1.3
4 | [O-]c1on[s+]c1-c1ccccc1 [phenyl, 4-phenyl-5H-1,3,2-oxathi(SIV)azol-5-one] | 2.3
